We go through one molecule from patent publication US20250332096A1, “BEVERAGE FORMULATION AND METHOD OF PROMOTING CELLULAR HYDRATION BY ENHANCING INTRACELLULAR PERMEATION” (Eastpond Laboratories Limited, priority 2024, published 2025).

One series in a line: pH of test solutions. The class given is physicochemical. The note with it: purified water. On the procedure: (§1) 1:1 mol/mol stoichiometry complexes were prepared for the experiment. Nicotinic acid/alpha-CD complex was prepared by dissolving 11.22 g nicotinic acid and 98.63 g alpha-CD (89.66 g on dry basis) in 700 ml purified water. Nicotinamide/alpha-CD complex was prepared by dissolving 5.57 g nicotinamide and 49.3 g alpha-CD (44.4 g on dry basis) in 350 ml purified water and L-arginine/alpha-CD complex was prepared by dissolving 15.18 g L-arginine and 94.26 g alpha-CD (85.69 g on dry basis) in 700 ml purified water. Further, for all the three complexes, the liquid was frozen in dry ice bath and lyophilized. The dry lyophilizate was ground and sieved.
(§2) Clarity, pH, conductivity, density, viscosity, turbidity, surface tension and osmolality were determined in solutions prepared with purified water. […]

A short description of series [1]: Conductivity of test solutions. The class given is physicochemical. To be noted: purified water. The procedure: as §1, §2
Series [2] can be described thus: Density measurements of test solutions. To be noted: Tap water. The class given is physicochemical. The procedure: The current study further manifests the density measurements in a cyclodextrin concentration dependent manner.
Water samples used were bottled water and tap water; wherein the tap water comprises the following impurities and properties: Free active chlorine (0.18 mg/1), Chloride (24 mg/1), Iron (6 μg/1), Manganese (2 μg/1), Nitrate (9 mg/1), Nitrite (<0.03 mg/1), Ammonium (<0.04 mg/1), Hardness of water (122 mg/l CaO), Conductivity (442 μS/cm) and pH 8. Purified water was produced by removal of dissolved ions by Merck/Millipore Synergy® Water Purification System at Cyclolab. The water quality produced Type 1 water (18.2 MΩ·cm at 25° C. ultrapure water) from pretreated water.
as §1, §2
However, it may not be established exactly which ionic species (Mg2+, Ca2+, Na+) causes this perturbation.

Series [3] can be described thus: Visual inspection (clarity) of test solutions. The class given is physicochemical. To be noted: purified water. The procedure: as §1, §2
Series [4] can be described thus: Osmolality of test solutions. The class given is physicochemical. To be noted: purified water. The procedure:
as §1, §2

The test system of series [5] is C. elegans. Nature of the series: C. elegans longevity in hydration modified water (Example 5). The class given is in vivo. To be noted: for Animals alive, % of initial: 0.1% w/w in nutritive media, USA I water. The procedure:
C. elegans nematodes were grown in petri-type dishes containing normal nutrient liquid media prepared alternatively with USA I water (described in Example 2) lacking any further additive component (control) or the same water supplemented with a parent α-, β-, or γ-cyclodextrin, and/or a bioactive agent, as an active component of cellular hydration. Fifty ±3 worms were transferred to each dish. Each condition was repeated in triplicate. Experiments were repeated for USA II and BP I waters described in Example 2.
• A. Addition of parent α-, β- and γ-cyclodextrins. • B. Addition of L-arginine and nicotinamide. • C. Addition of inclusion complexes of cyclodextrins with L-arginine and nicotinamide.

For another series, the target named is T1, human aquaporin 1 (AQP1) (Homo sapiens, UniProt P29972).
T1 construct: host or cells: Xenopus laevis oocytes (mRNA injection)
T1 sequence (P29972 1-269): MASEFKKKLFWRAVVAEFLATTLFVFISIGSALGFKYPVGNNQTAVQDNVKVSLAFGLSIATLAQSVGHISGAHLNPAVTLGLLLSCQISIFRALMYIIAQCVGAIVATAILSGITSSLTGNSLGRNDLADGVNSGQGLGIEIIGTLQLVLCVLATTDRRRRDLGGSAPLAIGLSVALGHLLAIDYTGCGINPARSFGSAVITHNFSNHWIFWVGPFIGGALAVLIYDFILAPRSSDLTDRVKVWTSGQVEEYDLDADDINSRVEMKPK
Kind of series: Xenopus oocyte swelling assay, osmotic water permeability. To be noted: 0.05% in water. The class given is cell-based. On the procedure:
They were then kept on ice for another 15 min before ovarectomy was performed. Ovaries were incubated in collagenase (Worthington Type II, 10 mg/ml) in calcium free Barth's solution (CFBS, NaCl 88 mM, KCl 1 mM, MgSO4 0.8 mM, TRIS-HCl 5 mM, NaHCO3 2.4 mM). Following defolliculation, oocytes were rinsed in normal Barth's solution (MBS, NaCl 88 mM, KCl 1 mM, CaCl2 0.4 mM, Ca(NO3)2 0.33 mM, MgSO4 0.8 mM, TRIS-HCl 5 mM, NaHCO3 2.4 mM) before they were transferred to 96-well plates. For nuclear injection of the different DNA's into the oocytes and for cytoplasmic injection of the mRNA encoding human Aquaporin-1 channels into the oocytes, the Roboocyte automated injection and recording system was used. (Human Aquaporine 1 cDNA cloned in expressing vector pGEM-T were purchased from Sino Biological Inc. Transcription to AQP1 mRNA was performed by an Ecocyte cooperation partner lab.) The mRNA injection volume was in the range 20-50 nl at a mRNA concentration of 100 ng/μl. After two to three days of incubation in Barth's solution supplemented with Gentamycin, water uptake of the Xenopus Oocytes through AQP1 channels was tested in a swelling assay using video microscopy. […] Normal frog ringer (NFR, NaCl 90 mM, KCl 2 mM, CaCl2 2 mM, MgCl2 1 mM, HEPES 5 mM, osmolarity 200 mOsm/1) was used as control solution and was prepared freshly on the day of the experiments. […]

The subject of series [6] is C. elegans. Kind of series: C. elegans lifespan Test A (observations carried out earlier). The class given is in vivo. The note with it: day 15, 0.1%, 50 worms per group. On the procedure:
C. elegans study performed for the present disclosure is a follow-up and repetition of the observations carried out earlier (referred as Test A here). The results of the current C. elegans study (Test B) were recorded with higher number of animals compared to the Test A (50 worms per treated groups versus 130 worms per groups). Nematodes were maintained and propagated on Nematode Growth Medium—(NGM) containing plates and fed with Escherichia coli OP50 bacteria. The C. elegans strain used in this study is Bristol (N2) as wild-type.

In the case of `OC[C@H]1O[C@@H]2O[C@H]3[C@H](O)[C@@H](O)[C@@H](O[C@H]4[C@H](O)[C@@H](O)[C@@H](O[C@H]5[C@H](O)[C@@H](O)[C@@H](O[C@H]6[C@H](O)[C@@H](O)[C@@H](O[C@H]7[C@H](O)[C@@H](O)[C@@H](O[C@H]1[C@H](O)[C@H]2O)O[C@@H]7CO)O[C@@H]6CO)O[C@@H]5CO)O[C@@H]4CO)O[C@@H]3CO` [Alpha Cyclodextrin, α-cyclodextrin], the pH was 6.20 in the series “pH of test solutions” (0.05%), 6.36 in the series “pH of test solutions” (0.10%), 6.55 in the series “pH of test solutions” (1.00%) and 6.70 in “pH of test solutions” (2.00%). In addition, the values for the Conductivity in series [1] (0.05%) and in series [1] (0.10%) were 35.3 μS · cm^−1 and 39.0 μS · cm^−1, respectively. Further, the Density (at 22 C.) in series [2] (0.05%) was 0.9992 ± 0.007 g/cm³; in series [2] (0.10%) it was 0.9994 ± 0.004 g/cm³; in series [2] (1.00%), 1.002 ± 0.007 g/cm³; in series [2] (2.00%), 1.009 ± 0.005 g/cm³. Further, the “Visual Inspection” value in series [3] (0.05%), in series [3] (0.10%), in series [3] (1.00%) and in series [3] (2.00%) was “clear” each time. Besides, the Osmolality in series [4] (0.05%) was found to be 0 mOsm/kg; in series [4] (0.10%), 2 mOsm/kg; in series [4] (2.00%) it was 18 mOsm/kg. Moreover, in the series with C. elegans [5] (after day 15, 0.1% w/w), the “number of animals surviving to old ages” value is given as “significantly increased”. Besides, the figures for the “Animals alive, % of initial” value with C. elegans [5] (life span 10 days), in the series with C. elegans [5] (life span 15 days) and in the series on C. elegans [5] (life span 18 days) were 100 % of initial, 20 % of initial and 2 % of initial, respectively. The “water permeation of human-aquaporin-expressed oocytes” value at human aquaporin 1 (AQP1) was “highest water permeation”. Moreover, in the series on C. elegans [6], the “Fraction of worms alive” value is 25%.
